The values that follow come from patent publication US11149018B2, “Substituted N-arylethyl-2-aminoquinoline-4-carboxamides and use thereof” (Bayer Aktiengesellschaft, priority 2017, dated 2021).

The target of this assay is FP receptor (Homo sapiens (Human), UniProt P43088). Put plainly: In vitro test of inhibition of human FP receptor activity (PGF2α-induced calcium flux in FP-expressing CHEM1 cells). Type of assay: cell-based. Conditions: PGF2α 2 nM, some mean values of multiple determinations. An outline of the steps: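 FP antagonism in FP-expressing CHEM1 cells loaded with Fluo-8. Compound preincubated 10 min at 37° C, then receptor stimulated with 2 nM (final) PGF2α in calcium-free Tyrode with 2 mM CaCl2.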
(In general: Calcium assays in cells follow changes in intracellular calcium, usually with a dye or a luminescent sensor.)

Chain of FP receptor (P43088 whole entry): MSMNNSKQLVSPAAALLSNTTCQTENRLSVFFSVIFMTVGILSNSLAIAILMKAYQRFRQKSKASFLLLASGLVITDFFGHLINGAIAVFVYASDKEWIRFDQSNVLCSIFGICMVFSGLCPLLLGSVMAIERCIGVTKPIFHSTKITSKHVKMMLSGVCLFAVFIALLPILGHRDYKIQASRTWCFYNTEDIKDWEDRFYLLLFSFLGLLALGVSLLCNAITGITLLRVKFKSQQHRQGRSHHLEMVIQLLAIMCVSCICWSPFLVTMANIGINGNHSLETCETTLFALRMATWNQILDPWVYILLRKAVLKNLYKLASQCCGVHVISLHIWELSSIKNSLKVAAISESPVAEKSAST

One may read the IC50 as the concentration that gives 50% inhibition. With `COC1CCCN(c2nc3ccc(Br)cc3c(C(=O)NCC(CCC(=O)O)c3cc(F)ccc3Cl)c2C)C1` (stereo not drawn) [Example 19, 5-[({6-Bromo-2-[3-methoxypiperidin-1-yl]-3-methylquinolin-4-yl}carbonyl)amino]-4-(2-chloro-5-fluorophenyl)pentanoic acid], the IC50 was determined as 130 nM.

Turning to `Cc1c(N2CCOC(CO)C2)nc2ccc(Br)cc2c1C(=O)NCC(CCC(=O)O)c1cc(F)ccc1Cl` (stereo not drawn) [Example 20, 5-[({6-Bromo-2-[2-(hydroxymethyl)morpholin-4-yl]-3-methylquinolin-4-yl}carbonyl)amino]-4-(2-chloro-5-fluorophenyl)pentanoic acid], the IC50 came out at 490 nM.

Take `Cc1c(N2CCCC(CO)C2)nc2ccc(Br)cc2c1C(=O)NCC(CCC(=O)O)c1cc(F)ccc1Cl` (stereo not drawn) [Example 21, 5-[({6-Bromo-2-[3-(hydroxymethyl)piperidin-1-yl]-3-methylquinolin-4-yl}carbonyl)amino]-4-(2-chloro-5-fluorophenyl)pentanoic acid]: the IC50 came to 230 nM.

Consider `Cc1c(N2CCC(C)C2)nc2ccc(Br)cc2c1C(=O)NCC(CCC(=O)O)c1ccccc1Cl` (stereo not drawn) [Example 36, 5-[({6-Bromo-3-methyl-2-[3-methylpyrrolidin-1-yl]quinolin-4-yl}carbonyl)amino]-4-(2-chlorophenyl)pentanoic acid], for which the IC50 stood at 22 nM.

Turning to `COC1CCN(c2nc3ccc(Br)cc3c(C(=O)NCC(CCC(=O)O)c3ccccc3Cl)c2C)C1` (stereo not drawn) [Example 41, 5-[({6-Bromo-2-[3-methoxypyrrolidin-1-yl]-3-methylquinolin-4-yl}carbonyl)amino]-4-(2-chlorophenyl)pentanoic acid], the IC50 turned out to be 430 nM.

Take `Cc1c(N2CCCC(C)C2)nc2ccc(Br)cc2c1C(=O)NCC(CCC(=O)O)c1ccccc1Cl` (stereo not drawn) [Example 45, 5-[({6-Bromo-3-methyl-2-[3-methylpiperidin-1-yl]quinolin-4-yl}carbonyl)amino]-4-(2-chlorophenyl)pentanoic acid]: the IC50 came out at 4.7 nM.

In the case of `Cc1c(N2CCCC(C(F)(F)F)C2)nc2ccc(Br)cc2c1C(=O)NCC(CCC(=O)O)c1ccccc1Cl` (stereo not drawn) [Example 53, 5-[({6-Bromo-3-methyl-2-[3-(trifluoromethyl)piperidin-1-yl]quinolin-4-yl}carbonyl)amino]-4-(2-chlorophenyl)pentanoic acid], the IC50 amounted to 5.7 nM.

For the compound `Cc1c(N2CCCC(O)C2)nc2ccc(Br)cc2c1C(=O)NCC(CCC(=O)O)c1ccccc1Cl` (stereo not drawn) [Example 55, 5-[({6-Bromo-2-[3-hydroxypiperidin-1-yl]-3-methylquinolin-4-yl}carbonyl)amino]-4-(2-chlorophenyl)pentanoic acid], the IC50 turned out to be 110 nM.

As to `Cc1c(N2CCCC(N)C2)nc2ccc(Br)cc2c1C(=O)NCC(CCC(=O)O)c1ccccc1Cl` (stereo not drawn) [Example 56, 5-[({2-[3-Aminopiperidin-1-yl]-6-bromo-3-methylquinolin-4-yl}carbonyl)amino]-4-(2-chlorophenyl)pentanoic acid], the IC50 worked out at 330 nM.

On to `Cc1c(N2CCCC(C)(O)C2)nc2ccc(Br)cc2c1C(=O)NCC(CCC(=O)O)c1ccccc1Cl` (stereo not drawn) [Example 62, 5-[({6-Bromo-2-[3-hydroxy-3-methylpiperidin-1-yl]-3-methylquinolin-4-yl}carbonyl)amino]-4-(2-chlorophenyl)pentanoic acid], for which the IC50 came out at 110 nM.

As to `Cc1c(N2CC(C)CC(C)C2)nc2ccc(Br)cc2c1C(=O)NCC(CCC(=O)O)c1ccccc1Cl` (stereo not drawn) [Example 63, 5-[({6-Bromo-2-[3,5-dimethylpiperidin-1-yl]-3-methylquinolin-4-yl}carbonyl)amino]-4-(2-chlorophenyl)pentanoic acid], the IC50 worked out at 7.3 nM.

Regarding `Cc1c(N2CCCC(C(F)F)C2)nc2ccc(Br)cc2c1C(=O)NCC(CCC(=O)O)c1ccccc1Cl` (stereo not drawn) [Example 64, 5-[({6-Bromo-2-[3-(difluoromethyl)piperidin-1-yl]-3-methylquinolin-4-yl}carbonyl)amino]-4-(2-chlorophenyl)pentanoic acid], the half-inhibitory concentration (IC50) came to 9.8 nM.

With `Cc1c(N2CC[C@H](F)C2)nc2ccc(Br)cc2c1C(=O)NCC(CCC(=O)O)c1ccccc1Cl` (stereo partly drawn) [Example 65, 5-[({6-Bromo-2-[(3S)-3-fluoropyrrolidin-1-yl]-3-methylquinolin-4-yl}carbonyl)amino]-4-(2-chlorophenyl)pentanoic acid], the IC50 amounted to 110 nM.

Turning to `Cc1c(N2CC[C@@H](F)C2)nc2ccc(Br)cc2c1C(=O)NCC(CCC(=O)O)c1ccccc1Cl` (stereo partly drawn) [Example 66, 5-[({6-Bromo-2-[(3R)-3-fluoropyrrolidin-1-yl]-3-methylquinolin-4-yl}carbonyl)amino]-4-(2-chlorophenyl)pentanoic acid], the IC50 was 12 nM.

Take `Cc1c(N2CC(F)C(F)C2)nc2ccc(Br)cc2c1C(=O)NCC(CCC(=O)O)c1ccccc1Cl` (stereo not drawn) [Example 69, 5-[({6-Bromo-2-[trans-3,4-difluoropyrrolidin-1-yl]-3-methylquinolin-4-yl}carbonyl)amino]-4-(2-chlorophenyl)pentanoic acid]: the IC50 came to 42 nM.

Turning to `Cc1c(N2CCC(C)(F)C2)nc2ccc(Br)cc2c1C(=O)NCC(CCC(=O)O)c1ccccc1Cl` (stereo not drawn) [Example 71, 5-[({6-Bromo-2-[3-fluoro-3-methylpyrrolidin-1-yl]-3-methylquinolin-4-yl}carbonyl)amino]-4-(2-chlorophenyl)pentanoic acid], the IC50 came out at 110 nM.

Turning to `Cc1c(N2CCCC(C#N)C2)nc2ccc(Br)cc2c1C(=O)NCC(CCC(=O)O)c1ccccc1Cl` (stereo not drawn) [Example 76, 5-[({6-Bromo-2-[3-cyanopiperidin-1-yl]-3-methylquinolin-4-yl}carbonyl)amino]-4-(2-chlorophenyl)pentanoic acid], the IC50 was determined as 670 nM.

Turning to `Cc1c(N2CCCC(F)C2)nc2ccc(Br)cc2c1C(=O)NCC(CCC(=O)O)c1ccccc1Cl` (stereo not drawn) [Example 78, 5-[({6-Bromo-2-[3-fluoropiperidin-1-yl]-3-methylquinolin-4-yl}carbonyl)amino]-4-(2-chlorophenyl)pentanoic acid], the IC50 was determined as 4.4 nM.

For the compound `Cc1c(N2CCCC2C)nc2ccc(Br)cc2c1C(=O)NCC(CCC(=O)O)c1ccccc1Cl` (stereo not drawn) [Example 79, 5-[({6-Bromo-3-methyl-2-[2-methylpyrrolidin-1-yl]quinolin-4-yl}carbonyl)amino]-4-(2-chlorophenyl)pentanoic acid], the IC50 is 7.8 nM.

With `Cc1c(N2CCCC(C(N)=O)C2)nc2ccc(Br)cc2c1C(=O)NCC(CCC(=O)O)c1ccccc1Cl` (stereo not drawn) [Example 85, 5-[({6-Bromo-2-[3-carbamoylpiperidin-1-yl]-3-methylquinolin-4-yl}carbonyl)amino]-4-(2-chlorophenyl)pentanoic acid], the IC50 worked out at 590 nM.

As to `Cc1c(N2CCOC(C)C2)nc2ccc(Br)cc2c1C(=O)NCC(CCC(=O)O)c1ccccc1Cl` (stereo not drawn) [Example 89, 5-[({6-Bromo-3-methyl-2-[2-methylmorpholin-4-yl]quinolin-4-yl}carbonyl)amino]-4-(2-chlorophenyl)pentanoic acid], the IC50 was determined as 350 nM.

With `Cc1c(N2CCCC(C(C)C)C2)nc2ccc(Br)cc2c1C(=O)NCC(CCC(=O)O)c1ccccc1Cl` (stereo not drawn) [Example 91, 5-[({6-Bromo-2-[3-isopropylpiperidin-1-yl]-3-methylquinolin-4-yl}carbonyl)amino]-4-(2-chlorophenyl)pentanoic acid], the IC50 was 9.9 nM.

In the case of `COCC1CCCN(c2nc3ccc(Br)cc3c(C(=O)NCC(CCC(=O)O)c3ccccc3Cl)c2C)C1` (stereo not drawn) [Example 93, 5-[({6-Bromo-2-[3-(methoxymethyl)piperidin-1-yl]-3-methylquinolin-4-yl}carbonyl)amino]-4-(2-chlorophenyl)pentanoic acid], the IC50 was found to be 80 nM.

As to `Cc1c(N2CCCCC2C)nc2ccc(Br)cc2c1C(=O)NCC(CCC(=O)O)c1ccccc1Cl` (stereo not drawn) [Example 108, 5-[({6-Bromo-3-methyl-2-[2-methylpiperidin-1-yl]quinolin-4-yl}carbonyl)amino]-4-(2-chlorophenyl)pentanoic acid], the IC50 was found to be 360 nM.

`Cc1c(N2CCCC(F)C2)nc2ccc(Br)cc2c1C(=O)NCC(CCC(=O)O)c1ccccc1C(F)(F)F` (stereo not drawn) [Example 123, 5-[({6-Bromo-2-[3-fluoropiperidin-1-yl]-3-methylquinolin-4-yl}carbonyl)amino]-4-[2-(trifluoromethyl)phenyl]pentanoic acid]: the 50% inhibitory concentration (IC50) is 13 nM.

On to `CCC1CCCN(c2nc3ccc(Br)cc3c(C(=O)NCC(CCC(=O)O)c3ccccc3C(F)(F)F)c2C)C1` (stereo not drawn) [Example 124, 5-[({6-Bromo-2-[3-ethylpiperidin-1-yl]-3-methylquinolin-4-yl}carbonyl)amino]-4-[2-(trifluoromethyl)phenyl]pentanoic acid], for which the IC50 came out at 2.8 nM.

For `Cc1c(N2CCCC(C)C2)nc2ccc(Br)cc2c1C(=O)NCC(CCC(=O)O)c1ccccc1C(F)(F)F` (stereo not drawn) [Example 125, 5-[({6-Bromo-3-methyl-2-[3-methylpiperidin-1-yl]quinolin-4-yl}carbonyl)amino]-4-[2-(trifluoromethyl)phenyl]pentanoic acid], the IC50 amounted to 5.2 nM.

Consider `Cc1c(N2CCCC(F)C2)nc2ccc(Br)cc2c1C(=O)NCC(CCC(=O)O)c1ccccc1OC(F)(F)F` (stereo not drawn) [Example 138, 5-[({6-Bromo-2-[3-fluoropiperidin-1-yl]-3-methylquinolin-4-yl}carbonyl)amino]-4-[2-(trifluoromethoxy)phenyl]pentanoic acid], for which the concentration for half-maximal inhibition (IC50) turned out to be 3 nM.

`CCC1CCCN(c2nc3ccc(Br)cc3c(C(=O)NCC(CCC(=O)O)c3ccccc3OC(F)(F)F)c2C)C1` (stereo not drawn) [Example 139, 5-[({6-Bromo-2-[3-ethylpiperidin-1-yl]-3-methylquinolin-4-yl}carbonyl)amino]-4-[2-(trifluoromethoxy)phenyl]pentanoic acid]: the IC50 was found to be 1.5 nM.

As for `Cc1c(N2CCCC(C)C2)nc2ccc(Br)cc2c1C(=O)NCC(CCC(=O)O)c1ccccc1OC(F)(F)F` (stereo not drawn) [Example 140, 5-[({6-Bromo-3-methyl-2-[3-methylpiperidin-1-yl]quinolin-4-yl}carbonyl)amino]-4-[2-(trifluoromethoxy)phenyl]pentanoic acid], the IC50 came to 2.3 nM.
